Assay results: patent publication US20230295152A1 (SENDA BIOSCIENCES, INC., priority 2019, published 2023)
pIC50: −log10 of the molar value.

Biological target: T1, AHR (Homo sapiens, UniProt P35869)
T1 construct: other cell line with a DRE-luciferase reporter stably transfected; endogenous in cells; host or cells: HepG2 AhR-Lucia reporter cells
T1 sequence (P35869 11-848): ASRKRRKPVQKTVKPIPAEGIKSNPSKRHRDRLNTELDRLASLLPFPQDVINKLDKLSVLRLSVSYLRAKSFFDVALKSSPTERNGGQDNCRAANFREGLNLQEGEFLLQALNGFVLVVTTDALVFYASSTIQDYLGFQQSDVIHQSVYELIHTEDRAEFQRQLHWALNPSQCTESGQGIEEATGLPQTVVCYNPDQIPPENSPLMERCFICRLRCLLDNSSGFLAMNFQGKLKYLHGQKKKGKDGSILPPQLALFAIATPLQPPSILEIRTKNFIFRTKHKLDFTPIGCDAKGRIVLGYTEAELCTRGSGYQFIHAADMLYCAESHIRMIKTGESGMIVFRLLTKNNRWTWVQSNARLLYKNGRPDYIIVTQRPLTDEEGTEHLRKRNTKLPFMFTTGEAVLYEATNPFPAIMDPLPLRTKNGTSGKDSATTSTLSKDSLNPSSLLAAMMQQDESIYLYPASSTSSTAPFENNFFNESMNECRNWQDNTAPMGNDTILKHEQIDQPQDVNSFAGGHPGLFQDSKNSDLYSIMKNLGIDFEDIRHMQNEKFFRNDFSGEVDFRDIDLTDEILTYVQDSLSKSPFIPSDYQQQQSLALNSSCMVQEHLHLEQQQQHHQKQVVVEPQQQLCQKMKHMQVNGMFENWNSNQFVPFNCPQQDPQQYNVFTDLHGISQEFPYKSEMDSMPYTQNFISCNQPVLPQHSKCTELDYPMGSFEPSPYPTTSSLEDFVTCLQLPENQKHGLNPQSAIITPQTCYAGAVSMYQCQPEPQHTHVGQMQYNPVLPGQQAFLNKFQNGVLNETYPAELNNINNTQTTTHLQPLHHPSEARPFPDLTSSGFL
Assay: DRE-Luciferase Reporter Assay, HepG2 AhR-Lucia reporter cells
Type: cell-based
Settings: with AHR activating ligand at EC50, read-out: HepG2-Luc IC50
Summary of the method: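 DRE-luciferase reporter cells (e.g. HepG2 AhR-Lucia, 20000 cells) treated with antagonist log dilutions from 100 uM, then an AHR agonist (e.g. TCDD, kynurenine, ITE, FICZ) at its EC50 added after 1 hr. Secreted luciferase measured after 24 or 48 h (QUANTI-Luc); IC50 = concentration halving luciferase activity.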

Row | SMILES | pIC50
1 | Cn1cc(-c2nc(-c3ccc(C(F)(F)F)nc3)cc3c(=O)n(C[C@@H](O)C(F)(F)F)cnc23)cn1 [Compound 110, (R)-8-(1-methyl-1H-pyrazol-4-yl)-3-(3,3,3-trifluoro-2-hydroxypropyl)-6-(6-(trifluoromethyl)pyridin-3-yl)pyrido[3,4-d]pyrimidin-4(3H)-one] | > 7.00
2 | Cn1cc(-c2nc(-c3ccc(C(F)(F)F)nc3)cc3c(=O)n(C[C@H](O)C(F)(F)F)cnc23)cn1 [Compound 111, (S)-8-(1-methyl-1H-pyrazol-4-yl)-3-(3,3,3-trifluoro-2-hydroxypropyl)-6-(6-(trifluoromethyl)pyridin-3-y1)pyrido[3,4-d]pyrimidin-4(3H)-one] | > 7.00
3 | C[C@@H](O)Cn1cnc2c(-c3cccnc3)nc(-c3ccc(C(F)(F)F)nc3)cc2c1=O [Compound 112, (R)-3-(2-hydroxypropyl)-8-(pyridin-3-yl)-6-(6-(trifluoromethyl)pyridin-3-yl)pyrido[3,4-d]pyrimidin-4(3H)-one] | > 7.00
4 | Cn1cc(-c2nc(-c3ccc(C(F)(F)F)nc3)cc3c(=O)n([C@H]4COC[C@@H]4O)cnc23)cn1 [Compound 114, 3-((3S,4R)-4-hydroxytetrahydrofuran-3-yl)-8-(1-methyl-1H-pyrazol-4-yl)-6-(6-(trifluoromethyl)pyridin-3-yl)pyrido[3,4-d]pyrimidin-4(3H)-one] | > 7.00
5 | Cn1cc(-c2nc(-c3ccc(C(F)(F)F)nc3)cc3c(=O)n([C@@H]4COC[C@H]4O)cnc23)cn1 [Compound 115, 3-((3R,4S)-4-hydroxytetrahydrofuran-3-y1)-8-(1-methyl-1H-pyrazol-4-y1)-6-(6-(trifluoromethyl)pyridin-3-yl)pyrido[3,4-d]pyrimidin-4(3H)-one] | > 7.00
6 | Cn1cc(-c2nc(-c3ccc(Cl)cc3)cc3c(=O)n([C@H]4COC[C@@H]4O)cnc23)cn1 [Compound 116] | > 7.00
7 | O=c1c2cc(-c3ccc(C(F)(F)F)nc3)nc(-c3cccnc3)c2ncn1[C@H]1COC[C@@H]1O [Compound 117] | > 7.00
8 | O=c1c2cc(-c3ccc(C4CC4)nc3)nc(-c3cccnc3)c2ncn1C[C@H](O)C(F)(F)F [Compound 120, (S)-6-(6-cyclopropylpyridin-3-yl)-8-(pyridin-3-yl)-3-(3,3,3-trifluoro-2-hydroxypropyl)pyrido[3,4-d]pyrimidin-4(3H)-one] | > 7.00
9 | O=c1c2cc(-c3ccc(C(F)(F)F)nc3)nc(-c3cccnc3)c2ncn1C[C@@H](O)C(F)(F)F [Compound 122, (R)-8-(pyridin-3-yl)-3-(3,3,3-trifluoro-2-hydroxypropyl)-6-(6-(trifluoromethyl)pyridin-3-yl)pyrido[3,4-d]pyrimidin-4(3H)-one] | > 7.00
10 | O=c1c2cc(-c3ccc(OC(F)(F)F)cc3)nc(-c3cccnc3)c2ncn1C[C@H](O)C(F)(F)F [Compound 124, (S)-8-(pyridin-3-yl)-3-(3,3,3-trifluoro-2-hydroxypropyl)-6-(4-(trifluoromethoxy)phenyl)pyrido[3,4-d]pyrimidin-4(3H)-one] | > 7.00
11 | O=c1c2cc(-c3ccc(C(F)(F)F)nc3)nc(-c3cccnc3)c2ncn1[C@H]1COC[C@H]1O [Compound 126, 3-((3S,4S)-4-hydroxytetrahydrofuran-3-yl)-8-(pyridin-3-yl)-6-(6-(trifluoromethyl)pyridin-3-yl)pyrido[3,4-d]pyrimidin-4(3H)-one] | > 7.00
12 | Cn1cc(-c2nc(-c3ccc(C4CC4)nc3)cc3c(=O)n(C[C@H](O)C(F)(F)F)cnc23)cn1 [Compound 136, (S)-6-(6-cyclopropylpyridin-3-yl)-8-(1-methyl-1H-pyrazol-4-yl)-3-(3,3,3-trifluoro-2-hydroxypropyl)pyrido[3,4-d]pyrimidin-4(3H)-one] | > 7.00
13 | O=c1c2cc(-c3ccc(C(F)(F)F)cn3)nc(-c3cccnc3)c2ncn1[C@H]1COC[C@@H]1O [Compound 139, 3-((3S,4R)-4-hydroxytetrahydrofuran-3-yl)-8-(pyridin-3-yl)-6-(5-(trifluoromethyl)pyridin-2-yl)pyrido[3,4-d]pyrimidin-4(3H)-one] | > 7.00
14 | O=c1c2cc(-c3ccc(C(F)(F)F)cn3)nc(-c3cccnc3)c2ncn1[C@@H]1COC[C@H]1O [Compound 140, 3-((3R,4S)-4-hydroxytetrahydrofuran-3-yl)-8-(pyridin-3-yl)-6-(5-(trifluoromethyl)pyridin-2-yl)pyrido[3,4-d]pyrimidin-4(3H)-one] | > 7.00
15 | C[C@H](O)Cn1cnc2c(-c3cnn(C)c3)nc(-c3ccc(C(F)(F)F)cn3)cc2c1=O [Compound 142, (S)-3-(2-hydroxypropyl)-8-(1-methyl-1H-pyrazol-4-yl)-6-(5-(trifluoromethyl)pyridin-2-yl)pyrido[3,4-d]pyrimidin-4(3H)-one] | > 7.00
16 | C[C@H](O)Cn1cnc2c(-c3cccnc3)nc(-c3ccc(C(F)(F)F)cn3)cc2c1=O [Compound 143, (S)-3-(2-hydroxypropyl)-8-(pyridin-3-yl)-6-(5-(trifluoromethyl)pyridin-2-yl)pyrido[3,4-d]pyrimidin-4(3H)-one] | > 7.00
17 | C[C@@H](O)Cn1cnc2c(-c3cccnc3)nc(-c3ccc(C(F)(F)F)cn3)cc2c1=O [Compound 144, (R)-3-(2-hydroxypropyl)-8-(pyridin-3-yl)-6-(5-(trifluoromethyl)pyridin-2-yl)pyrido[3,4-d]pyrimidin-4(3H)-one] | > 7.00
18 | O=c1c2cc(-c3ccc(C(F)(F)F)cn3)nc(-c3cccnc3)c2ncn1[C@H]1COC[C@H]1O [Compound 145, 3-((3S,4S)-4-hydroxytetrahydrofuran-3-yl)-8-(pyridin-3-yl)-6-(5-(trifluoromethyl)pyridin-2-yl)pyrido[3,4-d]pyrimidin-4(3H)-one] | > 7.00
19 | Cn1cc(-c2nc(-c3ccc(C(F)(F)F)cn3)cc3c(=O)n([C@H]4COC[C@H]4O)cnc23)cn1 [Compound 151, 3-((3S,4S)-4-hydroxytetrahydrofuran-3-yl)-8-(1-methyl-1H-pyrazol-4-yl)-6-(5-(trifluoromethyl)pyridin-2-yl)pyrido[3,4-d]pyrimidin-4(3H)-one] | > 7.00
20 | O=c1c2cc(-c3ccc(Cl)cc3)nc(-c3cccnc3)c2ncn1[C@@H]1COC[C@H]1O [Compound 152, 6-(4-chlorophenyl)-3-((3R,4S)-4-hydroxytetrahydrofuran-3-yl)-8-(pyridin-3-yl)pyrido[3,4-d]pyrimidin-4(3H)-one] | > 7.00
21 | O=c1c2cc(-c3ccc(C(F)(F)F)cn3)nc(-c3cccnc3)c2ncn1C[C@@H](O)C(F)(F)F [Compound 154, (R)-8-(pyridin-3-yl)-3-(3,3,3-trifluoro-2-hydroxypropyl)-6-(5-(trifluoromethyl)pyridin-2-yl)pyrido[3,4-d]pyrimidin-4(3H)-one] | > 7.00
22 | CNC(=O)[C@H](C)n1cnc2c(-c3cccnc3)nc(-c3ccc(C(F)(F)F)nc3)cc2c1=O [Compound 156, (S)—N-methyl-2-(4-oxo-8-(pyridin-3-yl)-6-(6-(trifluoromethyl)pyridin-3-yl)pyrido[3,4-d]pyrimidin-3(4H)-yl)propanamide] | > 7.00
23 | CC(C)(O)Cn1cnc2c(-n3ccnc3)nc(-c3ccc(C(F)(F)F)cn3)cc2c1=O [Compound 160, 3-(2-hydroxy-2-methylpropyl)-8-(1H-imidazol-1-yl)-6-(5-(trifluoromethyl)pyridin-2-yl)pyrido[3,4-d]pyrimidin-4(3H)-one] | > 7.00
